Reference: PubChem BioAssay (NCI)
Where “and” joins values, the source holds several entries; their conditions need not be identical. Identical values can stand only once.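 Exposure lasted 48 hours, with cells grown in 96-well plates and compounds tested at five concentrations. Here, GI50 denotes the concentration required for 50% inhibition of growth. At the TGI there is no net growth.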

Columns and labels:
Assay in all cases: inhibition of tumour cell growth, NCI panel, 48 h
[1] = system: A549 NSCLC
[2] = system: DU-145 prostate
[3] = system: EKVX NSCLC
[4] = system: HS 578T breast
[5] = system: HT29 colon
[6] = system: MALME-3M melanoma
[7] = system: NCI/ADR-RES ovarian
[8] = system: OVCAR-8 ovarian
[9] = system: SK-MEL-5 melanoma
[10] = system: SNB-19 CNS

SMILES | GI50 [1] [µM] | TGI [1] [µM] | GI50 [2] [µM] | TGI [2] [µM] | GI50 [3] [µM] | TGI [3] [µM] | GI50 [4] [µM] | TGI [4] [µM] | GI50 [5] [µM] | TGI [5] [µM] | GI50 [6] [µM] | TGI [6] [µM] | GI50 [7] [µM] | TGI [7] | GI50 [8] [µM] | TGI [8] [µM] | GI50 [9] [µM] | TGI [9] [µM] | GI50 [10] [µM] | TGI [10] [µM]
CC(C)(C[C@H]1CN(S(=O)(=O)c2cccc(C(F)(F)F)c2)c2cc(-c3cc(F)cc(OC(F)F)c3)ccc2O1)C(=O)O | 4.85 | 17.9 | 12.4 | 25.3 | 5.25 | 19.3 | 4.47 | 27.8 | 4.01 | 15.6 | 10.2 | 25.1 | 5.07 | 30.9 µM | 12.1 | 35.5 | 3.56 | 14.9 | 5.92 | 20.7
Br[C](Br)(Br)[Hg][c]1ccccc1 | 29.4 | 59.5 | 18.1 | 35 | 22 | 37.7 | 23.2 | 66.2 | 11.1 | 25.5 | 1.31 | 3.99 | 18.3 | 42.2 µM | 12.9 | 18.4 | 11.7 | 24.8 | 16.6 | 30.6
COc1cc(/C=C/c2ccc(OC)c(OC)c2)cc(OC)c1 | – | > 100 | – | > 100 | – | > 100 | – | 89.8 | – | 94.4 | – | > 100 | – | 60 µM | – | > 100 | – | 41.1 | – | > 100
COc1ccc(/C=C/c2cc(OC)cc(=O)o2)cc1 | – | > 100 | – | > 100 | – | > 100 | – | > 100 | – | > 100 | – | > 100 | – | > 100 µM | – | > 100 | – | > 100 | – | > 100
CC1=C(O)C(=O)C=C2C1=CC=C1[C@@]2(C)CC[C@@]2(C)[C@@H]3C[C@](C)(C(=O)O)CC[C@]3(C)CC[C@]12C | – | 2.03 | – | 0.202 | – | 0.174 | – | 3.7 | – | 0.145 | – | 0.152 | – | 0.107 µM | – | 0.0712 | – | 0.228 | – | 0.23
O=S(=O)(Nc1cc(Sc2cccc3cccnc23)c(O)c2ccccc12)c1ccccc1 | 0.747 | 18.1 | 0.828 | 9.83 | 1.01 | 8.55 | 3.27 | 79.3 | 2.42 | 14.4 | 2.72 | 9.65 | 0.931 | 11 µM | 0.631 | > 100 | 1.36 | 3.05 | 1.98 | 21.4
CC/C=C\C[C@H]1C/C=C2/C(=O)C=C[C@@H]2C/C=C\CCCC(=O)O1 | 2.23 | 9.05 | 0.816 | 5.79 | 2.04 | 5.89 | 4.34 | 38.1 | 0.376 | 1.27 | 1.92 | 4.86 | 0.405 | 7.32 µM | 0.338 | 10.7 | 1.38 | 2.74 | 2.09 | 11.7
C[C@H](O)C(=O)N1CCC(CCn2c(Sc3cc4c(cc3Br)OCO4)nc3c(N)ncnc32)CC1 | 0.869 | > 100 | 0.642 | > 100 | 4.11 | > 100 | – | > 100 | 0.432 | > 100 | 0.807 | > 100 | 13.9 | > 100 µM | 0.827 | > 100 | 2.95 | > 100 | 3.7 | > 100
CN(C)CCN1C(=O)c2ccc3c4c(ccc(c24)C1=O)C(=O)N(CCN=C=S)C3=O | 0.0739 | 0.252 | 0.0415 | 0.149 | 0.396 | 1.5 | 0.127 | 0.68 | 0.0297 | 0.115 | 0.0747 | 0.224 | 0.0524 | 0.495 µM | 0.0288 | 0.173 | 0.113 | 0.235 | 0.0954 | 0.596
Cc1ccc2[nH]c(O)c(N=Nc3ccc(S(N)(=O)=O)cc3)c2c1 | 9.66 | > 25 | 9.46 | > 25 | > 25 | > 25 | 8.24 | > 25 | 12.1 | > 25 | > 22.4 | > 25 | 18.2 | > 25 µM | > 16.9 | > 25 | 11 | > 25 | > 19.1 | > 25
Nc1nc(F)nc2c1ncn2C1OC(CO)C(O)C1O (stereo not given) | 35.6 | > 100 | 19.7 | > 100 | – | > 100 | – | > 100 | – | > 100 | 28.1 | > 100 | – | > 55.5 µM and 46.6 µM | 3.64 | > 100 | 39.7 | > 100 | 14.6 | > 100
CCOc1cc(C(C)(C)C)ccc1C1=N[C@@](C)(c2ccc(Cl)cc2)[C@@](C)(c2ccc(Cl)cc2)N1C(=O)N1CCN(CCCS(C)(=O)=O)CC1 | 1.01 | 19.4 | 11 | 25.6 | 4.3 | 23.7 | 9.26 | 35.2 | 2.96 | 9.28 | 0.274 | 11.3 | 4.97 | 18.9 µM | 12 | > 100 | 1.63 | 3.21 | 5.12 | 17.8
